For 17 compounds, IC50 and Ki results are on record in ChEMBL document CHEMBL1909046, “DrugMatrix in vitro pharmacology data”.

One data set addresses Carbonic anhydrase 2 (Homo sapiens, UniProt P00918). In words: DRUGMATRIX: Carbonic Anhydrase II enzyme inhibition (substrate: 4-Nitrophenyl acetate (4-NPA)). Format: tissue-based, Erythrocyte. The settings on record: Not Active = under 50% inhibition at 10 µM.
Data set [1] concerns the target Voltage-gated inwardly rectifying potassium channel KCNH2 (Homo sapiens, UniProt Q12809). The conditions noted are these: hek293. Also: in other assays of this panel Not Active means under 50% inhibition at 10 µM.
Data set [2] is described as follows: DRUGMATRIX: Platelet-Derived Growth Factor (PDGF) radioligand binding (ligand: [125I] PDGF). The settings on record: nih3t3; Not Active = under 50% inhibition at 10 µM. The format is cell-based.
Data set [3] addresses C-C chemokine receptor type 5 (Homo sapiens, UniProt P51681). Format: cell membranes, Membrane. The settings on record: hek293.
The next data set concerns the target T1, Progesterone receptor (Bos taurus, UniProt Q690N0).
T1 sequence (Q690N0 whole entry): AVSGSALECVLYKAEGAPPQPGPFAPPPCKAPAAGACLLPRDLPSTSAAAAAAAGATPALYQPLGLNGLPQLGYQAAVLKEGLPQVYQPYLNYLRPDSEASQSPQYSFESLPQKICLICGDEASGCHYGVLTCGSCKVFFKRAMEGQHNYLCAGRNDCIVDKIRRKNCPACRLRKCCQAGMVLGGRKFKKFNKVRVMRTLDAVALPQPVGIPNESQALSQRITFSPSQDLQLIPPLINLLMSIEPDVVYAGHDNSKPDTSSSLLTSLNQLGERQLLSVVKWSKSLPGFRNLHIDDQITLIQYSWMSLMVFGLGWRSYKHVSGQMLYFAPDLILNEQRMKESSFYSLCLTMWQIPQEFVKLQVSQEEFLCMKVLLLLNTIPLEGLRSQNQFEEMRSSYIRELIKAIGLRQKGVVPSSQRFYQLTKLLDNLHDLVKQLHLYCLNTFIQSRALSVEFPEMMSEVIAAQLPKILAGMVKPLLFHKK
Put plainly: DRUGMATRIX: Progesterone radioligand binding (ligand: [3H] R-5020). Format: tissue-based, Uterus. The settings on record: Not Active = under 50% inhibition at 10 µM.

For another data set, the target named is T2, D(4) dopamine receptor (Homo sapiens, UniProt P21917).
T2 sequence (P21917 whole entry): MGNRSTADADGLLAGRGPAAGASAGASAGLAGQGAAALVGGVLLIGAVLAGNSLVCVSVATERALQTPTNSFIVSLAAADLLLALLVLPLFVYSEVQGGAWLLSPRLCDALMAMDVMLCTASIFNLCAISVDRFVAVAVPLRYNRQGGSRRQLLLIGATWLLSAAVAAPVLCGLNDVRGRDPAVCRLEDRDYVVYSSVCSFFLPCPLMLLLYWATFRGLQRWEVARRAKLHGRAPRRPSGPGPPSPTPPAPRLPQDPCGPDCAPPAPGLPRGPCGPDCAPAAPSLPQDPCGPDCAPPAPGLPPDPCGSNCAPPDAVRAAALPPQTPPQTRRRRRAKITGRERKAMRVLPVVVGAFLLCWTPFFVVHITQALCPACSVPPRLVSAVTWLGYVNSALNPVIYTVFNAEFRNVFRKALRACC
In words: DRUGMATRIX: Dopamine D4.2 radioligand binding (ligand: [3H] Spiperone). The format is cell membranes, CHO-K1, Membrane. The conditions noted are these: cho-k1; Not Active = under 50% inhibition at 10 µM.

The nature of data set [4]: DRUGMATRIX: Phosphodiesterase PDE4 enzyme inhibition (substrate: [3H]cAMP + cAMP). The conditions noted are these: u-937; Not Active = under 50% inhibition at 10 µM.

C-C chemokine receptor type 5, sequence (P51681 whole entry): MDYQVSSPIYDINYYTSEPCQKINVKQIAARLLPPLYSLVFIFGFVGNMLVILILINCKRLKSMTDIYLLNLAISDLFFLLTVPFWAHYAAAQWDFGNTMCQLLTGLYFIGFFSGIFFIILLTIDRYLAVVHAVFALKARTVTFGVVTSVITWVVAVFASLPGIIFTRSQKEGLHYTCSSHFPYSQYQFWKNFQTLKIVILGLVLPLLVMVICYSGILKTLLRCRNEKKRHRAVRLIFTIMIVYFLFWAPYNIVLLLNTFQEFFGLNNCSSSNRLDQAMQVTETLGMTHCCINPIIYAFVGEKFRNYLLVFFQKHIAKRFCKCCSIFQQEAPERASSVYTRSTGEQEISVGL
Voltage-gated inwardly rectifying potassium channel KCNH2, sequence (Q12809 whole entry): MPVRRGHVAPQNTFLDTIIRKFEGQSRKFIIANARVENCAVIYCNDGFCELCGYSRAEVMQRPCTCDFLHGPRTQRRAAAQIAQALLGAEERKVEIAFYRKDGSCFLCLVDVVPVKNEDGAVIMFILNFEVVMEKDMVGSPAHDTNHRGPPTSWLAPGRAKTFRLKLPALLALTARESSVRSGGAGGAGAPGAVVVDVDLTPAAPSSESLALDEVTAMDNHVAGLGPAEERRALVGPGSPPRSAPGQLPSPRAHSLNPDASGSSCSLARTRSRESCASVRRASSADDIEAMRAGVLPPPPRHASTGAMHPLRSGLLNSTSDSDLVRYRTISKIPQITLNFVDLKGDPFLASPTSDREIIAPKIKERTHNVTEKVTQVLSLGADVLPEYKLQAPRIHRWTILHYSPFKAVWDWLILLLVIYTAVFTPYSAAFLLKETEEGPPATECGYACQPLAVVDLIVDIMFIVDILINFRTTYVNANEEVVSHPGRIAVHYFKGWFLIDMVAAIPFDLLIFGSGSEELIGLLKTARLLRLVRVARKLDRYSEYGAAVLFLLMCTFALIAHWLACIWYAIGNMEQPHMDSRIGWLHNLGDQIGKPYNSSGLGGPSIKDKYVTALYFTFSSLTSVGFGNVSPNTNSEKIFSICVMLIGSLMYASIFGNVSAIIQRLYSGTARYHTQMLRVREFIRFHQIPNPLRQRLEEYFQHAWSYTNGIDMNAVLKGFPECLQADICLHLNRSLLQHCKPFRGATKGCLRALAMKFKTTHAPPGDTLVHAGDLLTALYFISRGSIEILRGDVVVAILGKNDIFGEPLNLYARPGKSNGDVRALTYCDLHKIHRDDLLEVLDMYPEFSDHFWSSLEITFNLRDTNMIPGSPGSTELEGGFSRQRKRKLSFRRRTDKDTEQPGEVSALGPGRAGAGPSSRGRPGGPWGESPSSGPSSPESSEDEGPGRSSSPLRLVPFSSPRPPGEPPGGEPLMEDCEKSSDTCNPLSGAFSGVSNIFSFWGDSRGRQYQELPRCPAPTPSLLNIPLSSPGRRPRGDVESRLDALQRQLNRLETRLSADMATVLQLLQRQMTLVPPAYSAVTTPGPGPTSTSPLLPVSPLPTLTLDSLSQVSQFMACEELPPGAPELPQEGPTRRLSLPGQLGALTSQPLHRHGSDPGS

With `C[C@H]1O[C@H](O[C@H]2[C@H](O)[C@@H](O)[C@@H](O[C@H]3[C@H](O)[C@@H](O)C(O)O[C@@H]3CO)O[C@@H]2CO)[C@H](O)[C@@H](O)[C@@H]1N[C@H]1C=C(CO)[C@@H](O)[C@H](O)[C@H]1O` (stereo not given in full) [ACARBOSE], the half-maximal inhibitory concentration (IC50) result (at Carbonic anhydrase 2 (erythrocyte); in data set [1]; in data set [2]; in data set [3]; at Progesterone receptor; at D(4) dopamine receptor) was “Not Active” throughout. For the same compound, the IC50 (usually the concentration needed to halve the response being measured) in data set [4] is “Not Active”. The Ki entry in data set [1], in data set [2] and in data set [4] was “Not Active” in each case.
As to `CC[C@H]1[C@@H]2C[C@H]3[C@@H]4N(C)c5ccccc5[C@]45C[C@@H]([C@@H]2[C@H]5O)N3[C@@H]1O` [AJMALINE], the half-inhibitory concentration (IC50) entry (against Carbonic anhydrase 2 (erythrocyte); in data set [1]; in data set [2]; in data set [3]; at Progesterone receptor; at D(4) dopamine receptor) was “Not Active” throughout. The IC50 result in data set [4] is “Not Active”. Moreover, the Ki result in data set [1], in data set [2] and in data set [4] was “Not Active” in each case.
In the case of `NC12CC3CC(CC(C3)C1)C2` [AMANTADINE], the IC50 result (against Carbonic anhydrase 2 (erythrocyte); in data set [1]; in data set [2]; in data set [3]; on Progesterone receptor; on D(4) dopamine receptor) was “Not Active” in each case. In addition, the IC50 entry in data set [4] is “Not Active”. Moreover, the Ki result in data set [1], in data set [2] and in data set [4] was “Not Active” throughout.
For `CC(=O)Oc1ccccc1C(=O)O` [ASPIRIN], the IC50 result (on Carbonic anhydrase 2 (erythrocyte); in data set [1]; in data set [2]; in data set [3]; at Progesterone receptor; on D(4) dopamine receptor) was “Not Active” throughout. For the same compound, in data set [4], the 50% inhibitory concentration (IC50) result was “Not Active”. In addition, the Ki result in data set [1], in data set [2] and in data set [4] was “Not Active” in each case.
`CC(=O)OC[C@H]1O[C@@H](n2ncc(=O)[nH]c2=O)[C@H](OC(C)=O)[C@@H]1OC(C)=O` [AZARIBINE]: the IC50 result (at Carbonic anhydrase 2 (erythrocyte); in data set [1]; in data set [2]; in data set [3]; on Progesterone receptor; on D(4) dopamine receptor) was “Not Active” in each case. The IC50 result in data set [4] is on record as “Not Active”. Also, the Ki result in data set [1], in data set [2] and in data set [4] was “Not Active” each time.
For `C[C@H]1[C@H](NC(=O)/C(=N\OC(C)(C)C(=O)O)c2csc(N)n2)C(=O)N1S(=O)(=O)O` [AZTREONAM], the IC50 result (at Carbonic anhydrase 2 (erythrocyte); in data set [1]; in data set [2]; in data set [3]; on Progesterone receptor; at D(4) dopamine receptor) was “Not Active” in each case. The IC50 result in data set [4] is given as “Not Active”. Further, the Ki entry in data set [1], in data set [2] and in data set [4] was “Not Active” in each case.
Regarding `O=C(O)CCNC(=O)c1ccc(/N=N/c2ccc(O)c(C(=O)O)c2)cc1` [BALSALAZIDE], the IC50 entry (against Carbonic anhydrase 2 (erythrocyte); in data set [1]; in data set [2]; in data set [3]; at Progesterone receptor; on D(4) dopamine receptor) was “Not Active” in each case. Besides, the IC50 result in data set [4] is listed as “Not Active”. For the same compound, the Ki result in data set [1], in data set [2] and in data set [4] was “Not Active” each time.
Take `COc1cc(OC)c(C(=O)CCCN2CCCC2)c(OC)c1` [BUFLOMEDIL]: the IC50 result (on Carbonic anhydrase 2 (erythrocyte); in data set [1]; in data set [2]; in data set [3]; at Progesterone receptor; on D(4) dopamine receptor) was “Not Active” throughout. For the same compound, the IC50 entry in data set [4] is given as “Not Active”. The Ki result in data set [1], in data set [2] and in data set [4] was “Not Active” throughout.
For `Cn1c(=O)c2c(ncn2C)n(C)c1=O` [CAFFEINE], the IC50 entry (against Carbonic anhydrase 2 (erythrocyte); in data set [1]; in data set [2]; in data set [3]; at Progesterone receptor; on D(4) dopamine receptor) was “Not Active” each time. Further, the half-maximal inhibitory concentration (IC50) entry in data set [4] was “Not Active”. For the same compound, the Ki entry in data set [1], in data set [2] and in data set [4] was “Not Active” throughout.
For the compound `ClC(Cl)(Cl)Cl` [CARBON TETRACHLORIDE], the IC50 result (on Carbonic anhydrase 2 (erythrocyte); in data set [1]; in data set [2]; in data set [3]; at Progesterone receptor; at D(4) dopamine receptor) was “Not Active” each time. For the same compound, the half-maximal inhibitory concentration (IC50) result in data set [4] was “Not Active”. Further, the Ki result in data set [1], in data set [2] and in data set [4] was “Not Active” each time.
On to `CO/N=C(\C(=O)N[C@@H]1C(=O)N2C(C(=O)O)=C(COC(C)=O)CS[C@H]12)c1csc(N)n1` [CEFOTAXIME], for which the IC50 entry (against Carbonic anhydrase 2 (erythrocyte); in data set [1]; in data set [2]; in data set [3]; on Progesterone receptor; on D(4) dopamine receptor) was “Not Active” in each case. In addition, the IC50 entry in data set [4] is given as “Not Active”. The Ki entry in data set [1], in data set [2] and in data set [4] was “Not Active” each time.
Regarding `CNC1=Nc2ccc(Cl)cc2C(c2ccccc2)=[N+]([O-])C1` [CHLORDIAZEPOXIDE], the half-inhibitory concentration (IC50) result (on Carbonic anhydrase 2 (erythrocyte); in data set [1]; in data set [2]; in data set [3]; on Progesterone receptor; on D(4) dopamine receptor) was “Not Active” throughout. For the same compound, the IC50 entry in data set [4] is reported as “Not Active”. The Ki result in data set [1], in data set [2] and in data set [4] was “Not Active” throughout.
Take `Cc1cc(O)cc(C)c1Cl` [CHLOROXYLENOL]: the IC50 entry (against Carbonic anhydrase 2 (erythrocyte); in data set [1]; in data set [2]; in data set [3]; on Progesterone receptor; on D(4) dopamine receptor) was “Not Active” each time. Moreover, the IC50 entry in data set [4] is recorded as “Not Active”. Besides, the Ki result in data set [1], in data set [2] and in data set [4] was “Not Active” each time.
For the compound `CCCNC(=O)NS(=O)(=O)c1ccc(Cl)cc1` [CHLORPROPAMIDE], the IC50 entry (at Carbonic anhydrase 2 (erythrocyte); in data set [1]; in data set [2]; in data set [3]; at Progesterone receptor; on D(4) dopamine receptor) was “Not Active” throughout. In addition, the IC50 result in data set [4] is “Not Active”. In addition, the Ki entry in data set [1], in data set [2] and in data set [4] was “Not Active” throughout.
For `NS(=O)(=O)c1cc(C2(O)NC(=O)c3ccccc32)ccc1Cl` (stereo not given) [CHLORTHALIDONE], the IC50 at Carbonic anhydrase 2 (read-out: IC50) was 677 nM; in data set [1] it was “Not Active”; in data set [2], “Not Active”; in data set [3], “Not Active”; at Progesterone receptor, “Not Active”; on D(4) dopamine receptor, “Not Active”. Moreover, the IC50 result in data set [4] was “Not Active”. Besides, the Ki result in data set [1], in data set [2] and in data set [4] was “Not Active” throughout.
Consider `O=C(O)CC(O)(CC(=O)O)C(=O)O` [CITRIC ACID], for which the IC50 result (at Carbonic anhydrase 2 (erythrocyte); in data set [1]; in data set [2]; in data set [3]; on Progesterone receptor; on D(4) dopamine receptor) was “Not Active” each time. The IC50 entry in data set [4] is recorded as “Not Active”. Further, the Ki result in data set [1], in data set [2] and in data set [4] was “Not Active” in each case.
Regarding `CC(C)NCC(O)c1ccccc1Cl` (stereo not given) [CLORPRENALINE], the IC50 result (at Carbonic anhydrase 2 (erythrocyte); in data set [1]; in data set [2]; in data set [3]; at Progesterone receptor; on D(4) dopamine receptor) was “Not Active” each time. Further, the IC50 result in data set [4] is “Not Active”. The Ki result in data set [1], in data set [2] and in data set [4] was “Not Active” each time.
